From patent US5759995A, “Antiviral treatment” (priority 1996, dated 1998)

What was measured:
HSV-2 [1] = test: Multiplicity of infection study using the HSV-2 ELISA assay; type: cell-based, Herpes Simplex virus 2; settings: 18 hours
Protocol: (§1) The ability of cyclomarin-A to inhibit HSV-2 was tested in a culture-based ELISA assay. This assay measures viral glycoprotein inserted into the surface membrane of infected cells, a step in the process of viral replication. Vero cells (African Green monkey kidney cells) were grown in RPMI-1640 medium with L-glutamine (Quality Biological, Gaithersburg, Md.) with 5% fetal bovine serum (FBS) and passaged twice weekly by trypsinization. These were plated in 96-well sterile tissue culture plates at 2×10^4 cells/well. After incubation overnight at 37° C. in a humidified atmosphere with 5% CO2, wells were inoculated with 1000 plaque forming units per well (PFU/well) HSV-2 (MacIntyre strain, ATCC # VR-539), previously titered by plaque assay and stored at -80° C. Virus was absorbed for 1 hour. Cyclomarin-A was diluted to concentrations between 10^-7 g/ml and 10^-4 g/ml in 50% DMSO and added to the cells in a final volume of 1.5 μl with 150 μl RPMI and 1% FBS. The final DMSO concentration was 0.5%. Plates were incubated for 18 hours at 37° C., and fixed with 10% formalin to inactivate the virus.
(§2) Plates were incubated for 1 hour with a rabbit anti-HSV-2 IgG antibody diluted 1:5000 (DAKO, Carpenteria, Calif., catalog #B116), washed with PBS and incubated another hour with an HRP-labeled goat anti-rabbit antibody diluted 1:4000 (DAKO, catalog #PO448). After washing with PBS, TMB substrate was added for 15 minutes and reaction was stopped with addition of 1M phosphoric acid. OD was measured spectrophotometrically at a wavelength of 450 nm. Percent inhibition of HSV-2 was calculated against an infected, vehicle control (DMSO) with no drug added.
The effect of multiplicity of virus infection on cyclomarin-A activity was examined using the HSV-2 ELISA assay described in Example 1. Vero cell cultures were inoculated with HSV-2 to a final concentration of 500, 1000, 2500, and 5000 PFU/well. After cyclomarin-A was added to cells in 150 μl RPMI and 1% FBS, cells were incubated for 18 hours at which time the ELISA assay was completed. Percent inhibition of HSV-2 replication was calculated against an infected, vehicle control (DMSO) at the appropriate MOI with no drug added.

HSV-2 [2] = test: Combination study with acyclovir using the HSV-2 ELISA assay; type: cell-based, Herpes Simplex virus 2; settings: cyclomarin-A 0 to 16 μg/ml, acyclovir 0 to 5 μg/ml
Protocol: as §1, with “The final DMSO concentration was 0.5%. Plates were incubated for 18 hours at 37° C., and fixed with 10% formalin to inactivate the virus.” left out
as §2, with “After washing with PBS, TMB substrate was added for 15 minutes and reaction was stopped with addition of 1M phosphoric acid.” left out, “added. […]” for “added.”

uninfected Vero cells = test: Vero cell growth inhibition (SRB stain); type: cell-based, African Green monkey; settings: 48 hours
Protocol: The effect of cyclomarin-A on the growth of uninfected Vero cells was examined. Vero cells were grown in RPMI with 5% FBS and passaged twice weekly by trypsinization. These were plated in 96 well sterile tissue culture plates at 2×10^4 cells/well in 200 μl and incubated overnight at 37° C. in a humidified atmosphere with 5% CO2. Cyclomarin-A (10 mg/ml stock solution) was serially diluted (100, 50, 25 and 12.5 μg/ml final concentrations) in 100% DMSO, and added to the cells in a volume of 2 μl. Final DMSO concentration was 1%. Plates were incubated at 37° C. for 48 hours. Cells were fixed by addition of 50% TCA to each well. Plates were incubated at 4° C. for 1 hour. After washing cells with distilled water 0.4% SRB (sulforhodamine B in 1% acetic acid) stain was added to each well. After 25 minutes the stain was washed away with 1% acetic acid and wells were allowed to dry. The remaining stain was resolubilized in 10 mM Tris pH 10.0. Optical density (OD) was determined spectrophotometrically at 650 nm. Percent inhibition of cell growth was calculated based on no drug, vehicle (1% DMSO) control wells as 100%.

COC(c1ccccc1)[C@@H]1NC(=O)[C@H](C)NC(=O)[C@H](CC(C)CO)N(C)C(=O)[C@H](C(O)c2cn(C(C)(C)C3CO3)c3ccccc23)NC(=O)[C@H](C(C)C=C(C)C)NC(=O)[C@H](CC(C)C)N(C)C(=O)[C@H](C(C)C)NC1=O (stereo partly shown) [cyclomarin-A]
Percent inhibition of HSV-2 replication (HSV-2 [1]; 6.25 μg/ml cyclomarin-A, 500 PFU/well): 51% | Percent inhibition of HSV-2 replication (HSV-2 [1]; 6.25 μg/ml cyclomarin-A, 1000 PFU/well): 40% | Percent inhibition of HSV-2 replication (HSV-2 [1]; 6.25 μg/ml cyclomarin-A, 2,500 PFU/well): 17% | Percent inhibition of HSV-2 replication (HSV-2 [1]; 6.25 μg/ml cyclomarin-A, 5000 PFU/well): no detectable inhibition | Interference with acyclovir in combination (HSV-2 [2]): no interference with acyclovir | Percent inhibition of cell growth of uninfected Vero cells (uninfected Vero cells; 100 μg/ml): 27-33% | Effect on growth of uninfected Vero cells (uninfected Vero cells; concentrations below 50 μg/ml): no effect on cell growth
